Experiments:
Format in all cases: cell-based, HIV-1
V108I-RTV = assay: Phenotypic susceptibility assay (site directed mutant RTV); conditions: for change in susceptibility (fold, IC50) vs wild type control RTV: V108I alone; for change in susceptibility: mutation at codon 108
Source text: (§1) The resistance test vectors containing a functional luciferase gene cassette were constructed and host cells were transfected with the resistance test vector DNA. The resistant test vectors contained patient-derived reverse transcriptase and protease sequences that were either susceptible or resistant to the antiretroviral agents, such as nucleoside reverse transcriptase inhibitors, non-nucleoside reverse transcriptase inhibitors and protease inhibitors. The resistance test vector viral particles produced by transfecting the resistance test vector DNA into host cells, either in the presence or absence of protease inhibitors, were used to infect target host cells grown either in the absence of NRTI or NNRTI or in the presence of increasing concentrations of the drug. The amount of luciferase activity produced in infected target host cells in the presence of drug was compared to the amount of luciferase produced in infected target host cells in the absence of drug. Drug resistance was measured as the amount of drug required to inhibit by 50% the luciferase activity detected in the absence of drug (inhibitory concentration 50%, IC50). The IC50 values were determined by plotting percent drug inhibition vs. log10 drug concentration.
(§2) Host cells were seeded in 10-cm-diameter dishes and were transfected several days after plating with resistance test vector plasmid DNA and the envelope expression vector. Transfections were performed using a calcium-phosphate precipitation procedure. The cell culture media containing the DNA precipitate was replaced with fresh medium, from one to 24 hours, after transfection. Cell culture media containing resistance test vector viral particles was harvested one to four days after transfection and was passed through a […] filter before being stored at […]. HIV capsid protein (p24) levels in the harvested cell culture media were determined by an EIA method as described by the manufacturer (SIAC; Frederick, Md.). Before infection, target cells (293 and 293/T) were plated in cell culture media. Control infections were performed using cell culture media from mock transfections (no DNA) or transfections containing the resistance test vector plasmid DNA without the envelope expression plasmid. One to three or more days after infection the media was removed and cell lysis buffer (Promega) was added to each well. Cell lysates were assayed for luciferase activity (FIG. 3). The inhibitory effect of the drug was determined using the following equation: % luciferase inhibition=1−(RLUluc [drug]÷RLUluc)×100 where RLUluc [drug] is the relative light unit of luciferase activity in infected cells in the presence of drug and RLUluc is the Relative Light Unit of luciferase activity in infected cells in the absence of drug. IC50 values were obtained from the sigmoidal curves that were generated from the data by plotting the percent inhibition of luciferase activity vs. the log10 drug concentration. The drug inhibition curves are shown in (FIG. 3).
The V108I mutation was introduced into the resistance test vector using the mega-primer method for site directed mutagenesis (Sakar and Sommar, Ibid.). A resistance test vector containing the V108I mutation (V108I-RTV) was then tested using the phenotypic assay described earlier and the results were compared to those determined using a genetically defined resistance test vector that was wild type at position 108. We determined the pattern of phenotypic susceptibility to the NNRTIs, delaviridine, nevirapine and efavirenz, in the V108I-RTV.

K101E-RTV = assay: as above; conditions: K101E alone
Source text: as §1, §2
(§3) The K101E and G190S mutations were introduced alone and in combination into resistance test vectors using the megaprimer method for site-directed mutagenesis (Sakar and Sommar, Ibid.). Resistance test vectors containing the K101E mutation (K101E-RTV), the G190S mutation (G190S-RTV) were then tested using the phenotypic assay described earlier and the results were compared to those determined using a genetically defined resistance test vector that was wild type at positions 101 and 190. We determined the pattern of phenotypic susceptibility to the NNRTIs, delavirdine, nevirapine and efavirenz, in all three vectors.

K101E-G190S-RTV = assay: as above; conditions: for change in susceptibility (fold, IC50) vs wild type control RTV: K101E and G190S; for change in susceptibility: mutations at codons 101 and 190 (190S)
Source text: as §1, §2, §3

[1] = tested on: RTV-B clone 1 (RT A98G, G190S); assay: Phenotypic susceptibility assay (patient RTV); conditions: below 1 = increased susceptibility
Source text: as §1, with “Drug resistance was measured as the amount of drug required to inhibit by 50% the luciferase activity detected in the absence of drug (inhibitory concentration 50%, IC50).” left out
Host cells were seeded in 10-cm-diameter dishes and were transfected several days after plating with resistance test vector plasmid DNA and the envelope expression vector. […] HIV capsid protein (p24) levels in the harvested cell culture media were determined by an EIA method as described by the manufacturer (SIAC; Frederick, Md.). […] The inhibitory effect of the drug was determined using the following equation: % luciferase inhibition=1−(RLUluc [drug]÷RLUluc)×100 where RLUluc [drug] is the relative light unit of luciferase activity in infected cells in the presence of drug and RLUluc is the Relative Light Unit of luciferase activity in infected cells in the absence of drug. […]
A resistant test vector was constructed as described in Example 1 from a patient sample designated B. The anti-retroviral treatment this patient received is unknown. […] An IC50 was determined for the resistance test vector clone for each drug tested. […]

A98G-RTV = assay: Phenotypic susceptibility assay (site directed mutant RTV); conditions: for loss of susceptibility (fold, IC50) vs wild type control RTV: A98G alone; for change in susceptibility: mutation at codon 98
Source text: as §1, §2
The A98G mutation into the resistance test vector using the mega-primer method for site-directed mutagenesis (Sakar and Sommar, Ibid.). A resistance test vector containing the A98G mutation (A98G-RTV) was then tested using the phenotypic assay described earlier and the results were compared to those determined using a genetically defined resistance test vector that was wild type at position 98. We determined the pattern of phenotypic susceptibility to the NNRTIs, delavirdine, nevirapine and efavirenz, in the A98G-RTV.

[2] = tested on: RTV-1058 clone 4 (RT K103N); assay: Phenotypic susceptibility assay (patient RTV clone)
Source text: as §1, §2
(§4) A resistance test vector was constructed as described in Example 1 from a patient sample designated 98-1058. This patient had been previously treated with ddI, d4T, AZT, 3TC, ddC and abacavir (NRTIs), indinavir and amprenavir (PRIs) and nevirapine (an NNRTI). Isolation of viral RNA and RT/PCR was used to generate a patient derived segment that comprised viral sequences coding for all of RP and aa 1-313 of RT. The PDS was inserted into an indicator gene viral vector to generate a resistance test vector designated RTV-1058. Individual clones of RTV-1058 were selected and were then tested in a phenotypic assay to determine accurately and quantitatively the level of susceptibility to a panel of anti-retroviral drugs. The panel of antiretroviral drugs comprised members of the classes known as NRTIs (AZT, 3TC, d4T, kkI an ddC), NNRTIs (delavirdine and nevirapine), an PRIs (indinavir, nelfinavir, ritonavir, and saquinavir). […]

[3] = tested on: RTV-1058 clone 10 (RT L100I, K103N, Y188L); assay: as above
Source text: as §1, §2, §4

[4] = tested on: RTV-1058 clone 5 (RT L100I, K103N); assay: as above
Source text: as §1, §2, §4

SMILES: CC(C)Nc1cccnc1N1CCN(C(=O)c2cc3cc(NS(C)(=O)=O)ccc3[nH]2)CC1 [delavirdine]
- change in susceptibility (fold, IC50) vs wild type control RTV (V108I-RTV): 1.3 fold
- change in susceptibility (V108I-RTV): no change
- loss of susceptibility (fold, IC50) vs wild type control RTV (K101E-RTV): 5 fold
- change in susceptibility (fold, IC50) vs wild type control RTV (K101E-G190S-RTV): 1.4 fold
- change in susceptibility (K101E-G190S-RTV): no change
- change in susceptibility (fold, IC50) [1]: 0.55 fold
- loss of susceptibility (fold, IC50) vs wild type control RTV (A98G-RTV): 3 fold
- change in susceptibility (A98G-RTV): slight decrease
- loss of susceptibility (fold, IC50) [2]: 85 fold
- loss of susceptibility (fold, IC50) [3]: greater than 250 fold
- loss of susceptibility (fold, IC50) [4]: 250 fold

SMILES: O=C1Nc2ccc(Cl)cc2[C@@](C#CC2CC2)(C(F)(F)F)O1 [efavirenz]
- change in susceptibility (fold, IC50) vs wild type control RTV (V108I-RTV): 1.7 fold
- change in susceptibility (V108I-RTV): no change
- loss of susceptibility (fold, IC50) vs wild type control RTV (K101E-RTV): 5 fold
- change in susceptibility (fold, IC50) vs wild type control RTV (K101E-G190S-RTV): greater than 250 fold
- change in susceptibility (K101E-G190S-RTV): substantial decrease
- change in susceptibility (fold, IC50) [1]: 250 fold
- loss of susceptibility (fold, IC50) vs wild type control RTV (A98G-RTV): 3 fold
- change in susceptibility (A98G-RTV): slight decrease

SMILES: Cc1ccnc2c1NC(=O)c1cccnc1N2C1CC1 [nevirapine]
- change in susceptibility (fold, IC50) vs wild type control RTV (V108I-RTV): 3 fold
- change in susceptibility (V108I-RTV): slight decrease
- loss of susceptibility (fold, IC50) vs wild type control RTV (K101E-RTV): 12 fold
- change in susceptibility (fold, IC50) vs wild type control RTV (K101E-G190S-RTV): greater than 800 fold
- change in susceptibility (K101E-G190S-RTV): substantial decrease
- change in susceptibility (fold, IC50) [1]: 640 fold
- loss of susceptibility (fold, IC50) vs wild type control RTV (A98G-RTV): 8 fold
- change in susceptibility (A98G-RTV): slight decrease
- loss of susceptibility (fold, IC50) [2]: greater than 800 fold
- loss of susceptibility (fold, IC50) [3]: greater than 800 fold
- loss of susceptibility (fold, IC50) [4]: 120 fold

— US7037644B1, “Means and methods for monitoring non-nucleoside reverse transcriptase inhibitor antiretroviral therapy and guiding therapeutic decisions in the treatment of HIV/AIDS” (ViroLogic, Inc., priority 1998, dated 2006)
